According to patent US9718828B2 (MERCK SHARP & DOHME CORP., priority 2011, dated 2017):
Counter-ions that a name gives are not always drawn. Like-named read-outs stand apart in the source and are kept apart here.

Biological target: Btk enzyme (His-Btk) (Homo sapiens (Human), UniProt Q06187)
Assay: Btk enzyme activity, IMAP fluorescence polarization assay (Assay Method A)
[1] = read-out: EC50 Btk activity values - Assay Method A, IMAP-FP, 60 min pre-incubation, 5 μM ATP, class 100-1000 is given as ≧100 nM-<1 μM

Chain of Btk enzyme (His-Btk) (Q06187 whole entry): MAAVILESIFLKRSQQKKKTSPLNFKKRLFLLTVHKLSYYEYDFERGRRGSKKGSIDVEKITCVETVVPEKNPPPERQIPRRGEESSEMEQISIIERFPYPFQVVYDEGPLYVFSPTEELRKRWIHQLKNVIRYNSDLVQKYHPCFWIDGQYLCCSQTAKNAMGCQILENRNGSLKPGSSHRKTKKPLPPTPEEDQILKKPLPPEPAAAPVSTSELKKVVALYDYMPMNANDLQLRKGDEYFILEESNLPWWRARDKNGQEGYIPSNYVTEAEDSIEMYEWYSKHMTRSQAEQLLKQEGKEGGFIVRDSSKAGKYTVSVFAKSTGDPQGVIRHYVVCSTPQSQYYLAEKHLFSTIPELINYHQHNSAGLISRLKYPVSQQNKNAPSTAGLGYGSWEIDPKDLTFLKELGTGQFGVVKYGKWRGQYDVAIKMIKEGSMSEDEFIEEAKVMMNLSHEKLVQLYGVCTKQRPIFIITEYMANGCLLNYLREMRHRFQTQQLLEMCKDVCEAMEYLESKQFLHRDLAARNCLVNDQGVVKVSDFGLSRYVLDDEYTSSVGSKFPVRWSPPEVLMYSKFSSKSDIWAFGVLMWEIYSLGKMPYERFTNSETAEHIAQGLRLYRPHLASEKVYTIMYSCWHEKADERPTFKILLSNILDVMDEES

SMILES | EC50 [1] [nM] | EC50 [nM] | further results
CS(=O)(=O)CCC(=O)N1CCC[C@@H](c2nc(-c3ccc(C(=O)Nc4cc(C(F)(F)F)ccn4)cc3)c3c(N)nccn23)C1 [Example 77, (R)-4-(8-amino-3-(1-(3-(methylsulfonyl)propanoyl)piperidin-3-yl)imidazo[1,5-a]pyrazin-1-yl)-N-(4-(trifluoromethyl)pyridin-2-yl)benzamide] |  | < 10 | 
CC1(C)CC(c2nc(-c3ccc(C(=O)Nc4cc(C(F)(F)F)ccn4)cc3)c3c(N)nccn23)CCO1 (stereo not shown) [Example 34, 4-(8-amino-3-(2,2-dimethyltetrahydro-2H-pyran-4-yl)imidazo[1,5-a]pyrazin-1-yl)-N-(4-(trifluoromethyl)pyridin-2-yl)benzamide] | < 10 |  | 
Cc1cnc(N)c2c(-c3ccc(C(=O)Nc4cc(C(F)(F)F)ccn4)cc3)nc([C@@H]3CCCN(C(=O)C4(C)COC4)C3)n12 [Example 306, (R)-4-(8-amino-5-methyl-3-(1-(3-methyloxetane-3-carbonyl)piperidin-3-yl)imidazo[1,5-a]pyrazin-1-yl)-N-(4-(trifluoromethyl)pyridin-2-yl)benzamide] | < 10 |  | 
CC(C)(F)C(=O)N1CCOC(c2nc(-c3ccc(C(=O)Nc4cc(C(F)(F)F)ccn4)cc3)c3c(N)nccn23)C1 (stereo not shown) [Example 174, 4-(8-amino-3-(4-(2-fluoro-2-methylpropanoyl)morpholin-2-yl)imidazo[1,5-a]pyrazin-1-yl)-N-(4-(trifluoromethyl)pyridin-2-yl)benzamide] | < 10 |  | 
COCCC(=O)N1C2CCC1C(c1nc(-c3ccc(C(=O)Nc4ccccn4)cc3)c3c(N)nccn13)C2 (stereo not shown) [Example 148, 4-(8-amino-3-(7-(3-methoxypropanoyl)-7-azabicyclo[2.2.1]heptan-2-yl)imidazo[1,5-a]pyrazin-1-yl)-N-(pyridin-2-yl)benzamide] |  | 10 to 100 | 
COCCC(=O)N1CCC[C@@H](c2nc(-c3ccc(C(=O)Nc4ccccn4)cc3C(F)(F)F)c3c(N)nccn23)C1 [Example 283, 4-(8-amino-3-((R)-1-(3-methoxypropanoyl)piperidin-3-yl)imidazo[1,5-a]pyrazin-1-yl)-N-(pyridin-2-yl)-3-(trifluoromethyl)benzamide, TFA salt] |  |  | EC50 (read-out: EC50 Btk activity values - Assay Method A, IMAP-FP, 60 min pre-incubation, 5 μM ATP): ≥ 1000 nM
CCC(=O)N1CCC[C@@H](n2nc(-c3ccc(C(=O)Nc4cc(C(F)(F)F)ccn4)cc3)c3c(N)ncnc32)C1 [Example 271, (R)-4-(4-amino-1-(1-propionylpiperidin-3-yl)-1H-pyrazolo[3,4-d]pyrimidin-3-yl)-N-(4-(trifluoromethyl)pyridin-2-yl)benzamide] | < 10 |  | 
CCC(=O)N1CCSC(c2nc(-c3ccc(C(=O)Nc4cc(C(F)(F)F)ccn4)cc3)c3c(N)nccn23)C1 (stereo not shown) [Example 172, 4-(8-amino-3-(4-propionylthiomorpholin-2-yl)imidazo[1,5-a]pyrazin-1-yl)-N-(4-(trifluoromethyl)pyridin-2-yl)benzamide] | < 10 |  | 
Nc1nccn2c([C@@H]3CCCNC3)nc(-c3ccc(C(=O)Nc4cc(C(F)(F)F)ccn4)cc3)c12 [Example 106, (R)-4-(8-amino-3-(piperidin-3-yl)imidazo[1,5-a]pyrazin-1-yl)-N-(4-(trifluoromethyl)pyridin-2-yl)benzamide] | < 10 |  | 
CCNC(=O)C1CCCN(c2nc(-c3ccc(C(=O)Nc4cc(C(F)(F)F)ccn4)cc3)c3c(N)nccn23)C1 (stereo not shown) [Example 236, 1-(8-amino-1-(4-(4-(trifluoromethyl)pyridin-2-ylcarbamoyl)phenyl)imidazo[1,5-a]pyrazin-3-yl)-N-ethylpiperidine-3-carboxamide, TFA salt] | < 10 |  | 
COCCC(=O)N1CCC[C@@H](c2nc(-c3ccc(C(=O)Nc4ccccn4)nc3)c3c(N)nccn23)C1 [Example 287, (R)-5-(8-amino-3-(1-(3-methoxypropanoyl)piperidin-3-yl)imidazo[1,5-a]pyrazin-1-yl)-N-(pyridin-2-yl)picolinamide, TFA salt] |  | 10 to 100 | 
CCc1cnc(N)c2c(-c3ccc(C(=O)Nc4cc(C(F)(F)F)ccn4)cc3)nc([C@@H]3CCCN(C(=O)C4(C)COC4)C3)n12 [Example 308, (R)-4-(8-amino-5-ethyl-3-(1-(3-methyloxetane-3-carbonyl)piperidin-3-yl)imidazo[1,5-a]pyrazin-1-yl)-N-(4-(trifluoromethyl)pyridin-2-yl)benzamide] | < 10 |  | 
CC1(C(=O)N2CCC[C@@H](c3nc(-c4ccc(C(=O)Nc5cc(C(F)(F)F)ccn5)cc4)c4c(N)ncnn34)C2)COC1 [Example 261, (R)-4-(4-amino-7-(1-(3-methyloxetane-3-carbonyl)piperidin-3-yl)imidazo[1,5-f][1,2,4]triazin-5-yl)-N-(4-(trifluoromethyl)pyridin-2-yl)benzamide] | < 10 |  | 
CCNC(=O)N1CCC[C@@H](c2nc(-c3ccc(C(=O)Nc4cc(C(F)(F)F)ccn4)cc3)c3c(N)ncnn23)C1 [Example 256, (R)-3-(4-amino-5-(4-(4-(trifluoromethyl)pyridin-2-ylcarbamoyl)phenyl)imidazo[1,5-f][1,2,4]triazin-7-yl)-N-ethylpiperidine-1-carboxamide] | < 10 |  | 
CCCc1ccnc(NC(=O)c2ccc(-c3nc(N(CC)CC)n4ccnc(N)c34)cc2)c1 [Example 214, 4-(8-amino-3-(diethylamino)imidazo[1,5-a]pyrazin-1-yl)-N-(4-propylpyridin-2-yl)benzamide] | < 10 |  | 

Continued, in another order:

EC50 [1] [nM] | EC50 [nM] | SMILES | further results
< 10 |  | CCNC(=O)N1C[C@H](c2nc(-c3ccc(C(=O)Nc4cc(C(F)(F)F)ccn4)cc3)c3c(N)nccn23)CC[C@@H]1C (relative stereo) [Example 201, (cis)-5-(8-amino-1-(4-(4-(trifluoromethyl)pyridin-2-ylcarbamoyl)phenyl)imidazo [1,5-a]pyrazin-3-yl)-N-ethyl-2-methylpiperidine-1-carboxamide, TFA salt] | 
 | 100 to 1000 | Nc1nccn2c([C@@H]3CCN(C(=O)C4CCOC4)C3)nc(-c3ccc(C(=O)Nc4ccccn4)cc3)c12 (stereo partly drawn) [Example 128, (R)-4-(8-amino-3-(1-(tetrahydrofuran-3-carbonyl)pyrrolidin-3-yl)imidazo[1,5-a]pyrazin-1-yl)-N-(pyridin-2-yl)benzamide, TFA salt] | 
 | 10 to 100 | CN(C)C1(C(=O)N2CCC[C@@H](c3nc(-c4ccc(C(=O)Nc5cc(C(F)(F)F)ccn5)cc4)c4c(N)nccn34)C2)CCC1 [Example 79, (R)-4-(8-amino-3-(1-(1-(dimethylamino)cyclobutane-carbonyl)piperidin-3-yl)imidazo[1,5-a]pyrazin-1-yl)-N-(4-(trifluoromethyl)pyridin-2-yl)benzamide] | 
 | < 10 | CCC(=O)N1CCC[C@@H](c2nc(-c3ccc(C(=O)Nc4cc(C5CC5)ccn4)cc3)c3c(N)nccn23)C1 [Example 60, (R)-4-(8-amino-3-(1-propionylpiperidin-3-yl)imidazo[1,5-a]pyrazin-1-yl)-N-(4-cyclopropylpyridin-2-yl)benzamide] | 
 | < 10 | CCNC(=O)N1CCC[C@@H](c2nc(-c3ccc(C(=O)Nc4cc(C5CC5)ccn4)cc3)c3c(N)nccn23)C1 [Example 63, (R)-3-(8-amino-1-(4-(4-cyclopropylpyridin-2-ylcarbamoyl)phenyl)imidazo [1,5-a]pyrazin-3-yl)-N-ethylpiperidine-1-carboxamide] | 
 | 10 to 100 | COc1cc(-c2nc([C@H]3CC[C@H](O)CC3)n3ccnc(N)c23)ccc1C(=O)Nc1ccccn1 [Example 9, 4-(8-amino-3-((trans)-4-hydroxycyclohexyl)imidazo[1,5-a]pyrazin-1-yl)-2-methoxy-N-(pyridin-2-yl)benzamide] | 
< 10 |  | Nc1nccn2c([C@@H]3CCCN(C(=O)[C@H](O)CO)C3)nc(-c3ccc(C(=O)Nc4cc(C5CC5)ccn4)cc3)c12 [Example 289, 4-(8-amino-3-((R)-1-((R)-2,3-dihydroxypropanoyl)piperidin-3-yl)imidazo[1,5-a]pyrazin-1-yl)-N-(4-cyclopropylpyridin-2-yl)benzamide] | 
 | < 10 | N#Cc1ccnc(NC(=O)c2ccc(-c3nc(C4CCCC4)n4ccnc(N)c34)cc2)c1 [Example 44, 4-(8-amino-3-cyclopentylimidazo[1,5-a]pyrazin-1-yl)-N-(4-cyanopyridin-2-yl)benzamide, TFA salt] | 
 | < 10 | Nc1nccn2c([C@@H]3CCCN(C(=O)C45CC(C4)C5)C3)nc(-c3ccc(C(=O)Nc4cc(C(F)(F)F)ccn4)cc3)c12 [Example 90, (R)-4-(8-amino-3-(1-(bicyclo[1.1.1]pentane-1-carbonyl)piperidin-3-yl)imidazo[1,5-a]pyrazin-1-yl)-N-(4-(trifluoromethyl)pyridin-2-yl)benzamide] | 
< 10 |  | C[C@H]1CC[C@@H](c2nc(-c3ccc(C(=O)Nc4ccccn4)cc3)c3c(N)nccn23)CN1C(=O)C1CC(F)(F)C1 (relative stereo) [Example 203, 4-(8-amino-3-((cis)-1-(3,3-difluorocyclobutanecarbonyl)-6-methylpiperidin-3-yl)imidazo[1,5-a]pyrazin-1-yl)-N-(pyridin-2-yl)benzamide, TFA salt] | 
< 10 |  | CCNC(=O)N1C[C@H](c2nc(-c3ccc(C(=O)Nc4cc(C(F)(F)F)ccn4)cc3)c3c(N)nccn23)CC[C@H]1C (relative stereo) [Example 186, (trans)-5-(8-amino-1-(4-(4-(trifluoromethyl)pyridin-2-ylcarbamoyl)phenyl)imidazo [1,5-a]pyrazin-3-yl)-N-ethyl-2-methylpiperidine-1-carboxamide, TFA salt] | 
 | 100 to 1000 | CN1CCc2nc(NC(=O)c3ccc(-c4nc([C@H]5CC[C@H](O)CC5)n5ccnc(N)c45)cc3)sc2C1 [Example 18, 4-(8-amino-3-((trans)-4-hydroxycyclohexyl)imidazo[1,5-a]pyrazin-1-yl)-N-(5-methyl-4,5,6,7-tetrahydrothiazolo[5,4-c]pyridin-2-yl)benzamide] | 
 | 100 to 1000 | CCC(=O)N1CCC2(CC1)CC2c1nc(-c2ccc(C(=O)Nc3ccccn3)cc2)c2c(N)nccn12 (stereo not shown) [Example 153, 4-(8-amino-3-(6-propionyl-6-azaspiro[2.5]octan-1-yl)imidazo[1,5-a]pyrazin-1-yl)-N-(pyridin-2-yl)benzamide] | 
